In patent US8980905B2, “Benzodioxole or benzodioxepine heterocyclic compounds as phosphodiesterase inhibitors” (Leo Pharma A/S, priority 2010, dated 2015):

tested on: not listed separately; test: In vivo pharmacokinetic analyses in rat; details: serum, PO dosing 5 mg/kg, read-out: Serum Cmax of parent compound
Method: One rat is dosed orally (5 mg/kg—dissolved in DMSO/H2O/propylenglycol [1:5:4]) and blood samples are taken from the sublingual venous plexus at 30 min, 1 h, 2 h, 4 h and 6 h. Blood samples are taken in BD Vacutainer SST serum separation tubes, serum is isolated by centrifugation, transferred to micronics tubes and subsequently analysed.
Mass spectrometer (API5000 series) parameters are optimised to analyse for the specific compounds and test injections are performed to confirm the validity of the established generic chromatography method. The generic method is based on fast gradient (2.5 min) analysis on C18 column with mobile phases consisting methanol, ammonium acetate, formic acid and water.
Standards are prepared in rat serum to cover the analytical range 0.1 to 300 ng/ml. Standards, blank serum and study samples are applied to 96 deepwell plate and proteins are precipitated by addition of acetonitrile containing internal standard. Samples are analysed on LC-MS/MS usually overnight. Integration and quantification is performed on ration between analyte and internal standard using Analyst software version 1.5. Pharmacokinetic parameters are calculated using a standardised Excel spreadsheet.

Row | Cmax | SMILES
1 | < 3 ng/mL | O=C(Cc1c(Cl)cncc1Cl)c1ccc(OC(F)F)c2c1OC1(CCOCC1)O2 [Compound 105, 2-(3,5-Dichloropyridine-4-yl)-1-(7-difluoromethoxy-2′,3′,5′,6′-tetrahydro-spiro[1,3-benzodioxole-2,4′-(4H)-pyran]-4-yl)ethanone]
2 | 133 ng/mL | O=C(Cc1c(Cl)c[n+]([O-])cc1Cl)c1ccc(OC(F)F)c2c1OC1(CCOCC1)O2 [Compound 106, 2-(3,5-Dichloro-1-oxido-pyridine-4-yl)-1-(7-difluoromethoxy-2′,3′,5′,6′-tetrahydro-spiro[1,3-benzodioxole-2,4′-(4H)-pyran]-4-yl)ethanone]

molecular target: Human recombinant PDE4 (Genbank accession no NM-006203) (Homo sapiens (Human), UniProt Q08499); test: PDE4 Assay (SPA, cAMP cleavage); format: biochemical; details: human recombinant PDE4, 1 hour incubation, cAMP 1x10-5 M; read-out: IC50 (PDE4)
Method: Human recombinant PDE4 (Genbank accession no NM_006203) was incubated for 1 hour, with the test compound at concentrations up to 10 μM, with cAMP (1×10^-5M), and with a low amount (0.021 MBq) of radioactively labelled cAMP. At the end of the incubation, the cleavage of the substrate was evaluated by the binding of the AMP product to SPA beads, which generate chemoluminescence when bound to the radioactive tracer. The AMP product inhibited the binding of the radioactive tracer to the beads, and the luminescent signal was competed.
The results were calculated as the molar concentrations resulting in 50% inhibition of the substrate cleavage compared to controls samples, and are expressed as IC50 (M).

Human recombinant PDE4 (Genbank accession no NM-006203), sequence (Q08499 other isoform, or with tags, fused parts or gaps): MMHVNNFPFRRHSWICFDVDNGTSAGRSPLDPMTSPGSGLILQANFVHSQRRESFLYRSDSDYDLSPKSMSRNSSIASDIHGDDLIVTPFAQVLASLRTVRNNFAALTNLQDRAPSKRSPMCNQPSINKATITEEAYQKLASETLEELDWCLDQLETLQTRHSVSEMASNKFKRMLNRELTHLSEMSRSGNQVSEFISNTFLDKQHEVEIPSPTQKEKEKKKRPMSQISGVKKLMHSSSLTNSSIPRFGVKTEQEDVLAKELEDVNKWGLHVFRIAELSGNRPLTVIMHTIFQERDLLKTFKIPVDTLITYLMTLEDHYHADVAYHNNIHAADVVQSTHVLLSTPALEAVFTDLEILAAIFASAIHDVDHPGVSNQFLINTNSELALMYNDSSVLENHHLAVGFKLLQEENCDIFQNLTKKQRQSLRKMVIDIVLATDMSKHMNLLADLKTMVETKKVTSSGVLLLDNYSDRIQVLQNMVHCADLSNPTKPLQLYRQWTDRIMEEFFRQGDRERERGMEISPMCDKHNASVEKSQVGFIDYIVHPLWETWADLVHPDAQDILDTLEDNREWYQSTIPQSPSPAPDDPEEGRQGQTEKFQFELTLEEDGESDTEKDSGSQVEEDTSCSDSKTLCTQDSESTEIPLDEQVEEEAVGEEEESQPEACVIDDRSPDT

Row | SMILES | IC50
3 | O=C(Cc1c(Cl)cncc1Cl)c1ccc(OC(F)F)c2c1OCC1(CCOCC1)CO2 [Compound 103, 2-(3,5-Dichloropyridin-4-yl)-1-{9-difluoromethoxy-spiro[2H-1,5-benzodioxepin-3(4H),4′-tetrahydropyran]-6-yl}ethanone] | 6 nM
4 | O=C(Cc1c(Cl)cncc1Cl)c1ccc(OC(F)F)c2c1OCC1(COC1)CO2 [Compound 101, 2-(3,5-Dichloropyridin-4-yl)-1-{9-difluoromethoxy-spiro[2H-1,5-benzodioxepin-3(4H),3′-oxetane]-6-yl}ethanone] | 6 nM
5 | O=C(Nc1c(Cl)cncc1Cl)c1ccc(OC(F)F)c2c1OC1(CCSCC1)O2 [Compound 110, N-(3,5-Dichloro-4-pyridyl)-7-Difluoromethoxy-2′,3′,5′,6′-tetrahydro-spiro[1,3-benzodioxole-2,4′-(4H)-thiopyran]-4-carbamide] | 2 nM
6 | O=C(Nc1c(Cl)c[n+]([O-])cc1Cl)c1ccc(OC(F)F)c2c1OC1(CCS(=O)(=O)CC1)O2 [Compound 111, N-(3,5-dichloro-1-oxo-4-pyridyl)-7-(difluoromethoxy)-1′,1′-dioxo-spiro[1,3-benzodioxole-2,4′-thiane]-4-carboxamide] | 106 nM

Continued, values first:

Row | IC50 | SMILES
7 | 16 nM | O=C(Cc1c(Cl)c[n+]([O-])cc1Cl)c1ccc(OC(F)F)c2c1OC1(CCS(=O)(=O)CC1)O2 [Compound 108, 2-(3,5-Dichloro-1-oxido-pyridine-4-yl)-1-(7-difluoromethoxy-2′,3′,5′,6′-tetrahydro-spiro[1,3-benzodioxole-2, 4′-(4H)-thiopyran-1′,1′-dioxide]-4-yl)ethanone]
8 | 4 nM | O=C(Cc1c(Cl)c[n+]([O-])cc1Cl)c1ccc(OC(F)F)c2c1OCC1(CCOCC1)CO2 [Compound 104, 2-(3,5-Dichloro-1-oxido-pyridin-4-yl)-1-{9-difluoromethoxy-spiro[2H-1,5-benzodioxepin-3(4H),4′-tetrahydropyran]-6-yl}ethanone]
9 | 7 nM | O=C(Cc1c(Cl)cncc1Cl)c1ccc(OC(F)F)c2c1OC1(CCOCC1)O2 [Compound 105, 2-(3,5-Dichloropyridine-4-yl)-1-(7-difluoromethoxy-2′,3′,5′,6′-tetrahydro-spiro[1,3-benzodioxole-2,4′-(4H)-pyran]-4-yl)ethanone]
10 | 13 nM | O=C(Cc1c(Cl)cncc1Cl)c1ccc(OC(F)F)c2c1OC1(CCS(=O)(=O)CC1)O2 [Compound 109, 2-(3,5-Dichloropyridine-4-yl)-1-(7-difluoromethoxy-2′,3′,5′,6′-tetrahydro-spiro[1,3-benzodioxole-2, 4′-(4H)-thiopyran-1′,1′-dioxide]-4-yl)ethanone]
11 | 5 nM | O=C(Cc1c(Cl)c[n+]([O-])cc1Cl)c1ccc(OC(F)F)c2c1OC1(CCOCC1)O2 [Compound 106, 2-(3,5-Dichloro-1-oxido-pyridine-4-yl)-1-(7-difluoromethoxy-2′,3′,5′,6′-tetrahydro-spiro[1,3-benzodioxole-2,4′-(4H)-pyran]-4-yl)ethanone]

same assay, conditions: stated in text of example 15; read-out: PDE4 activity

Row | IC50 | SMILES
12 | 5000 nM | O=C(Cc1c(Cl)cncc1Cl)c1ccc(O)c2c1OC1(CCOCC1)O2 [Compound 403, 2-(3,5-Dichloropyridine-4-yl)-1-(7-hydroxy-2′,3′,5′,6′-tetrahydro-spiro[1,3-benzodioxole-2,4′-(4H)-pyran]-4-yl)ethanone]
